Data reported in article PMC11274883, “Anticancer Effect of Pt^[sequence], Pt^II5MESS, Pt^II56MESS and Their Platinum(IV)-Dihydroxy Derivatives against Triple-Negative Breast Cancer and Cisplatin-Resistant Colorectal Cancer” (Cancers, 2024).

Tested on: MDA−MB−231 cells
Assay: Western blot protein expression
Type: cell-based
Conditions: MDA−MB−231, IC50, 72 h; for β-actin/GAPDH normalized to control (1): representative blot Figure S24A; for β-tubulin/GAPDH normalized to control (1): representative blot Figure S24B; for α-tubulin/GAPDH normalized to control (1): representative blot Figure S24C; for p-AKT/AKT/GAPDH normalized to control (1): representative blot Figure S25A; for p-ERK/ERK/GAPDH normalized to control (1): representative blot Figure S25B; for p53/GAPDH normalized to control (1): representative blot Figure S25C; for p21/GAPDH normalized to control (1): representative blot Figure S25D; for Bax/GAPDH normalized to control (1): representative blot Figure S26A; for Bcl2/GAPDH normalized to control (1): representative blot Figure S26B; for Cytochrome C/GAPDH normalized to control (1): representative blot Figure S26C; for Procaspase 8/GAPDH normalized to control (1): representative blot Figure S26D; for Cleaved BID/GAPDH normalized to control (1): representative blot Figure S26E; for Procaspase 9/GAPDH normalized to control (1): representative blot Figure S26F; for Procaspase 3/GAPDH normalized to control (1): representative blot Figure S26G; for PARP-1/GAPDH normalized to control (1): representative blot Figure S26H; for Beclin1/GAPDH normalized to control (1): representative blot Figure S27A; for ATG5/GAPDH normalized to control (1): representative blot Figure S27B; for ATG16L1/GAPDH normalized to control (1): representative blot Figure S27C; for ATG9A/GAPDH normalized to control (1): representative blot Figure S27D; for ATG4B/GAPDH normalized to control (1): representative blot Figure S27E; for LC3B/GAPDH normalized to control (1): representative blot Figure S27F
Outline: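 Cells were lysed in RIPA buffer with orthovanadate, and 20 µg protein was run on SDS-PAGE, transferred to PVDF and probed for proliferation, apoptosis, microtubule and autophagy markers. ECL band intensities were normalised to GAPDH and then to untreated control. Three independent experiments were run per marker.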

In the case of `Cc1cc2cccnc2c2ncccc12.N[C@H]1CCCC[C@@H]1N.O=[N+]([O-])[O-].O=[N+]([O-])[O-].[OH][Pt+2][OH]` [Pt^IV5MESS(OH)2, [Pt(5-methyl-1,10-phenanthroline)(1S,2S-diaminocyclohexane)(dihydroxy)](NO3)2], the “β-actin/GAPDH normalized to control (1)” value was 0.8788, the “β-tubulin/GAPDH normalized to control (1)” value (from here on “β-tubulin/GAPDH normalized”) was 0.3985 and the “α-tubulin/GAPDH normalized to control (1)” value (“α-tubulin/GAPDH normalized” for short) was 1.177. The “p-AKT/AKT/GAPDH normalized to control (1)” value (“p-AKT/AKT/GAPDH normalized” for short) was 0.9345, the “p-ERK/ERK/GAPDH normalized to control (1)” value (“p-ERK/ERK/GAPDH normalized” for short) was 0.144 and the “p53/GAPDH normalized to control (1)” value was 1.183. The “p21/GAPDH normalized to control (1)” value was 1.042, the “Bax/GAPDH normalized to control (1)” value was 1.846 and the “Bcl2/GAPDH normalized to control (1)” value was 0.7914. The “Cytochrome C/GAPDH normalized to control (1)” value (“Cytochrome C/GAPDH normalized” for short) was 2.795, the “Procaspase 8/GAPDH normalized to control (1)” value (“Procaspase 8/GAPDH normalized” below) was 0.3546 and the “Cleaved BID/GAPDH normalized to control (1)” value (shortened to “Cleaved BID/GAPDH normalized”) was 5.948. The “Procaspase 9/GAPDH normalized to control (1)” value (“Procaspase 9/GAPDH normalized” below) was 0.3022, the “Procaspase 3/GAPDH normalized to control (1)” value (shortened to “Procaspase 3/GAPDH normalized”) was 0.7167 and the “PARP-1/GAPDH normalized to control (1)” value was 0.5187. The “Beclin1/GAPDH normalized to control (1)” value was 0.9374, the “ATG5/GAPDH normalized to control (1)” value was 1.065 and the “ATG16L1/GAPDH normalized to control (1)” value was 1.203. For the same compound, the “ATG9A/GAPDH normalized to control (1)” value was 0.3984, the “ATG4B/GAPDH normalized to control (1)” value was 2.797 and the “LC3B/GAPDH normalized to control (1)” value was 0.6059.
In the case of `Cc1c(C)c2cccnc2c2ncccc12.N[C@H]1CCCC[C@@H]1N.O=[N+]([O-])[O-].O=[N+]([O-])[O-].[OH][Pt+2][OH]` [Pt^IV56MESS(OH)2, [Pt(5,6-dimethyl-1,10-phenanthroline)(1S,2S-diaminocyclohexane)(dihydroxy)](NO3)2], the “β-actin/GAPDH normalized to control (1)” value was 0.6671, the “β-tubulin/GAPDH normalized” value was 0.4289 and the “α-tubulin/GAPDH normalized” value was 1.359. For the same compound, the “p-AKT/AKT/GAPDH normalized” value was 0.79, the “p-ERK/ERK/GAPDH normalized” value was 0.2828 and the “p53/GAPDH normalized to control (1)” value was 1.183. The “p21/GAPDH normalized to control (1)” value was 1.053, the “Bax/GAPDH normalized to control (1)” value was 2.6 and the “Bcl2/GAPDH normalized to control (1)” value was 0.8651. For the same compound, the “Cytochrome C/GAPDH normalized” value was 2.185, the “Procaspase 8/GAPDH normalized” value was 0.568 and the “Cleaved BID/GAPDH normalized” value was 8.533. For the same compound, the “Procaspase 9/GAPDH normalized” value was 0.4557, the “Procaspase 3/GAPDH normalized” value was 0.9471 and the “PARP-1/GAPDH normalized to control (1)” value was 0.6182. The “Beclin1/GAPDH normalized to control (1)” value was 0.9592, the “ATG5/GAPDH normalized to control (1)” value was 0.8924 and the “ATG16L1/GAPDH normalized to control (1)” value was 1.456. The “ATG9A/GAPDH normalized to control (1)” value was 0.8822, the “ATG4B/GAPDH normalized to control (1)” value was 2.179 and the “LC3B/GAPDH normalized to control (1)” value was 0.7501.
In the case of `Cc1cc2cccnc2c2ncccc12.N[C@H]1CCCC[C@@H]1N.O=[N+]([O-])[O-].O=[N+]([O-])[O-].[Pt+2]` [Pt^II5MESS, [Pt(5-methyl-1,10-phenanthroline)(1S,2S-diaminocyclohexane)](NO3)2], the “β-actin/GAPDH normalized to control (1)” value was 0.7082, the “β-tubulin/GAPDH normalized” value was 0.4163 and the “α-tubulin/GAPDH normalized” value was 0.6399. For the same compound, the “p-AKT/AKT/GAPDH normalized” value was 0.5388, the “p-ERK/ERK/GAPDH normalized” value was 0.5947 and the “p53/GAPDH normalized to control (1)” value was 0.7809. The “p21/GAPDH normalized to control (1)” value was 2.478, the “Bax/GAPDH normalized to control (1)” value was 1.886 and the “Bcl2/GAPDH normalized to control (1)” value was 0.5074. For the same compound, the “Cytochrome C/GAPDH normalized” value was 1.513, the “Procaspase 8/GAPDH normalized” value was 0.5099 and the “Cleaved BID/GAPDH normalized” value was 14.29. The “Procaspase 9/GAPDH normalized” value was 0.3101, the “Procaspase 3/GAPDH normalized” value was 0.5405 and the “PARP-1/GAPDH normalized to control (1)” value was 0.7693. The “Beclin1/GAPDH normalized to control (1)” value was 2.588, the “ATG5/GAPDH normalized to control (1)” value was 0.5948 and the “ATG16L1/GAPDH normalized to control (1)” value was 0.4742. For the same compound, the “ATG9A/GAPDH normalized to control (1)” value was 0.2882, the “ATG4B/GAPDH normalized to control (1)” value was 1.839 and the “LC3B/GAPDH normalized to control (1)” value was 0.9366.
